Inconclusive results and toxic doses are left out. Cut-off read from the data, not from the text of the source: active = T/C of 150% or more; inactive = T/C below 125%.
Test system: L1210 leukemia ip in BDF1 mice, survival T/C
Test: NCI In Vivo Anticancer Drug Screen. Data for tumor model L1210 Leukemia (intraperitoneal) in B6D2F1 (BDF1) mice
Conditions: endpoint: mean survival time, higher = longer survival
Method in brief: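 Tumor cells were implanted, animals were treated, and survival was followed. The result divides the treated measurement by the vehicle-control measurement.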

[1] = dose: 25.0 mg/kg/injection, schedule: Q01DX009 (ip), vehicle: Klucel (hydroxypropylcellulose) (HPC)
[2] = dose: 25.0 mg/kg/injection, schedule: Q04DX003 (ip), vehicle: Klucel (hydroxypropylcellulose) (HPC)
[3] = dose: 50.0 mg/kg/injection, schedule: Q01DX009 (ip), vehicle: Klucel (hydroxypropylcellulose) (HPC)
[4] = dose: 50.0 mg/kg/injection, schedule: Q04DX003 (ip), vehicle: Klucel (hydroxypropylcellulose) (HPC)
[5] = dose: 100.0 mg/kg/injection, schedule: Q01DX009 (ip), vehicle: Klucel (hydroxypropylcellulose) (HPC)
[6] = dose: 100.0 mg/kg/injection, schedule: Q04DX003 (ip), vehicle: Klucel (hydroxypropylcellulose) (HPC)
[7] = dose: 200.0 mg/kg/injection, schedule: Q01DX009 (ip), vehicle: Klucel (hydroxypropylcellulose) (HPC)
[8] = dose: 200.0 mg/kg/injection, schedule: Q04DX003 (ip), vehicle: Klucel (hydroxypropylcellulose) (HPC)
[9] = dose: 400.0 mg/kg/injection, schedule: Q04DX003 (ip), vehicle: Klucel (hydroxypropylcellulose) (HPC)
[10] = dose: 200.0 mg/kg/injection, schedule: Q04DX002 (ip), vehicle: Klucel (hydroxypropylcellulose) (HPC)
[11] = dose: 400.0 mg/kg/injection, schedule: Q01DX009 (ip), vehicle: Klucel (hydroxypropylcellulose) (HPC)
[12] = dose: 100.0 mg/kg/injection, schedule: Q01DX001 (ip), vehicle: carboxymethylcellulose (CMC)
[13] = dose: 200.0 mg/kg/injection, schedule: Q01DX001 (ip), vehicle: carboxymethylcellulose (CMC)
[14] = dose: 400.0 mg/kg/injection, schedule: Q01DX001 (ip), vehicle: carboxymethylcellulose (CMC)
[15] = dose: 100.0 mg/kg/injection, schedule: Q01DX001 (ip), vehicle: saline
[16] = dose: 200.0 mg/kg/injection, schedule: Q01DX001 (ip), vehicle: saline
[17] = dose: 400.0 mg/kg/injection, schedule: Q01DX001 (ip), vehicle: saline

Measured: T/C

CN1C(=O)CCS(=O)(=O)C1c1ccc(Cl)cc1 (stereo unspecified)
inactive: [1] 104 % of control | [2] 94 % of control | [3] 103 % of control | [4] 101 % of control | [5] 101 % of control | [6] 101 % of control | [7] 92 % of control | [8] 97 % of control | [9] 99 % of control

O=C(NCc1ccco1)Nc1ccc([N+](=O)[O-])cc1
inactive: dose: 222.0 mg/kg/injection, schedule: Q01DX Z (ip), vehicle: methylcellulose (MC) 101 % of control | dose: 333.0 mg/kg/injection, schedule: Q01DX Z (ip), vehicle: methylcellulose (MC) 94 % of control | dose: 500.0 mg/kg/injection, schedule: Q01DX Z (ip), vehicle: methylcellulose (MC) 96 % of control

NS(=O)(=O)c1ccc(NC(=O)Nc2cccc(C(F)(F)F)c2)cc1
inactive: [5] 97 % of control | dose: 100.0 mg/kg/injection, schedule: Q04DX002 (ip), vehicle: Klucel (hydroxypropylcellulose) (HPC) 94 % of control | [7] 91 % of control | [10] 91 % of control | [11] 94 % of control | dose: 400.0 mg/kg/injection, schedule: Q04DX002 (ip), vehicle: Klucel (hydroxypropylcellulose) (HPC) 97 % of control

CSc1nc(N)c(N=Nc2ccc(S(=O)(=O)Nc3nnc(C)s3)cc2)c(=O)[nH]1
inactive: [12] 95 % of control | [13] 97 % of control | [14] 101 % of control

CCOC(=N)CCNS(=O)(=O)c1ccc(C)cc1
inactive: [15] 104 % of control | [16] 98 % of control | [17] 115 % of control

O=S(=O)(C1CCCCC1)C1CCCC1
inactive: [5] 97 % of control | [6] 102 % of control | [7] 100 % of control | [8] 105 % of control | [11] 107 % of control | [9] 107 % of control

CCCCCCCC/C=C\CCCCCCCC(=O)OCCCCCCCCCCCCCCCCCC
inactive: [5] 104 % of control | dose: 100.0 mg/kg/injection, schedule: Q01DX009 (ip), vehicle: saline sonified 105 % of control | [7] 91 % of control | dose: 200.0 mg/kg/injection, schedule: Q01DX009 (ip), vehicle: saline sonified 93 % of control | [11] 105 % of control | dose: 400.0 mg/kg/injection, schedule: Q01DX009 (ip), vehicle: saline sonified 98 % of control

Cc1ccc(C(=O)O)cc1S(=O)(=O)F
inactive: dose: 100.0 mg/kg/injection, schedule: Q01DX009 (ip), vehicle: saline with Tween-80 96 % of control | dose: 100.0 mg/kg/injection, schedule: Q04DX003 (ip), vehicle: saline with Tween-80 107 % of control | dose: 200.0 mg/kg/injection, schedule: Q01DX009 (ip), vehicle: saline with Tween-80 96 % of control | dose: 200.0 mg/kg/injection, schedule: Q04DX003 (ip), vehicle: saline with Tween-80 91 % of control | dose: 400.0 mg/kg/injection, schedule: Q01DX009 (ip), vehicle: saline with Tween-80 90 % of control | dose: 400.0 mg/kg/injection, schedule: Q04DX003 (ip), vehicle: saline with Tween-80 91 % of control

CCCCCCCCCCCCCCCCOc1ccc(C(=O)O)cc1NC(=O)CC(C)=O
inactive: [6] 92 % of control | [8] 95 % of control | [9] 92 % of control

COc1cc2c(cc1OC)C(CCCCCCCC1NCCc3cc(OC)c(OC)cc31)NCC2 (stereo unspecified)
inactive: dose: 0.25 mg/kg/injection, schedule: Q01DX015 (ip), vehicle: saline 97 % of control | dose: 0.5 mg/kg/injection, schedule: Q01DX015 (ip), vehicle: saline 100 % of control | dose: 1.0 mg/kg/injection, schedule: Q01DX015 (ip), vehicle: saline 103 % of control | dose: 2.0 mg/kg/injection, schedule: Q01DX015 (ip), vehicle: saline 102 % of control | dose: 4.0 mg/kg/injection, schedule: Q01DX015 (ip), vehicle: saline 106 % of control | dose: 8.0 mg/kg/injection, schedule: Q01DX015 (ip), vehicle: carboxymethylcellulose (CMC) 91 % of control | dose: 16.0 mg/kg/injection, schedule: Q01DX015 (ip), vehicle: carboxymethylcellulose (CMC) 91 % of control | dose: 50.0 mg/kg/injection, schedule: Q01DX001 (ip), vehicle: saline 101 % of control | [15] 100 % of control

Cn1ccc2c([N+](=O)[O-])cccc2c1=O
inactive: [2] 92 % of control | [4] 98 % of control

CC(=O)Nc1cc(C)ns1
inactive: dose: 50.0 mg/kg/injection, schedule: Q01DX001 (ip), vehicle: carboxymethylcellulose (CMC) 104 % of control | [12] 104 % of control | [13] 101 % of control | [14] 98 % of control

Cc1coc(NS(=O)(=O)c2ccc(N=Nc3c(N)n(C)c(=O)n(C)c3=O)cc2)c1C
inactive: [12] 98 % of control | [13] 95 % of control | [14] 98 % of control

CC(=O)c1ccc(N=NC2C(=O)N(c3ccccc3)N=C2C)cc1 (stereo unspecified)
inactive: [15] 96 % of control | [16] 94 % of control | [17] 102 % of control

N=C(N)c1ccc(-c2cc3ccc(C(=N)N)cc3s2)cc1
inactive: dose: 12.5 mg/kg/injection, schedule: Q04DX003 (ip), vehicle: saline with Tween-80 96 % of control | dose: 25.0 mg/kg/injection, schedule: Q04DX003 (ip), vehicle: saline with Tween-80 107 % of control | dose: 50.0 mg/kg/injection, schedule: Q04DX003 (ip), vehicle: saline with Tween-80 96 % of control

Clc1ccc2nsnc2c1Cl
inactive: [6] 95 % of control | [8] 98 % of control | [9] 98 % of control

CC(C)CN=C(N)CSS(=O)(=O)O
inactive: dose: 12.5 mg/kg/injection, schedule: Q04DX002 (ip), vehicle: Klucel (hydroxypropylcellulose) (HPC) 102 % of control | dose: 25.0 mg/kg/injection, schedule: Q04DX002 (ip), vehicle: Klucel (hydroxypropylcellulose) (HPC) 105 % of control | dose: 50.0 mg/kg/injection, schedule: Q04DX002 (ip), vehicle: Klucel (hydroxypropylcellulose) (HPC) 94 % of control | [10] 94 % of control

COc1cc([N+](=O)[O-])cc2c(C)cc(=O)[nH]c12
inactive: [15] 95 % of control | dose: 100.0 mg/kg/injection, schedule: Q01DX009 (ip), vehicle: saline 103 % of control | [16] 99 % of control | dose: 200.0 mg/kg/injection, schedule: Q01DX009 (ip), vehicle: saline 92 % of control | [17] 93 % of control | dose: 400.0 mg/kg/injection, schedule: Q01DX009 (ip), vehicle: saline 93 % of control

O=C(O)c1ccc(Cl)cc1Cl
inactive: dose: 100.0 mg/kg/injection, schedule: Q04DX002 (ip), vehicle: gum acacia 88 % of control | dose: 200.0 mg/kg/injection, schedule: Q04DX002 (ip), vehicle: gum acacia 98 % of control | dose: 400.0 mg/kg/injection, schedule: Q04DX002 (ip), vehicle: gum acacia 100 % of control

Cc1[nH]c(=O)nc(Br)c1[N+](=O)[O-]
inactive: [3] 101 % of control | [5] 107 % of control | [6] 97 % of control | [7] 98 % of control | [8] 95 % of control

COc1cc2c(cc1OC)C(CCc1ccc(Cl)cc1)N(C)CC2 (stereo unspecified)
inactive: dose: 12.5 mg/kg/injection, schedule: Q01DX009 (ip), vehicle: Klucel (hydroxypropylcellulose) (HPC) 113 % of control | [1] 108 % of control | [3] 104 % of control | [5] 116 % of control | [7] 113 % of control

O=C([O-])CO.[Co+3].[NH2-].[NH2-].[NH2-].[NH2-].[NH2-].[O-][Cl+3]([O-])([O-])O
inactive: dose: 100.0 mg/kg/injection, schedule: Q04DX002 (ip), vehicle: saline 103 % of control | dose: 200.0 mg/kg/injection, schedule: Q04DX002 (ip), vehicle: saline 100 % of control | dose: 400.0 mg/kg/injection, schedule: Q04DX002 (ip), vehicle: saline 103 % of control

O=Nc1cc(-c2nccc3ccccc23)[nH]c1-c1ccccc1
inactive: dose: 100.0 mg/kg/injection, schedule: Q01DX001 (ip), vehicle: other 94 % of control | dose: 200.0 mg/kg/injection, schedule: Q01DX001 (ip), vehicle: other 96 % of control | dose: 400.0 mg/kg/injection, schedule: Q01DX001 (ip), vehicle: other 94 % of control
